Data on 1 compound can be found in PMC5754397, “Population pharmacokinetics of nintedanib, an inhibitor of tyrosine kinases, in patients with non-small cell lung cancer or idiopathic pulmonary fibrosis” (Cancer Chemotherapy and Pharmacology, 2017).

On the set-up of series [1]: method as in ref 13, 21, 22 = [13]; 13. Boehringer Ingelheim (2017) OFEV® (nintedanib) capsules, for oral use; Prescribing information, revised: 08/2017. http://docs.boehringer-ingelheim.com/Prescribing%20Information/PIs/Ofev/ofev.pdf . || [21]; 21. Boehringer Ingelheim (2013) Relative bioavailability of nintedanib given alone and in combination with ketoconazole at steady state in healthy male volunteers (an open-label, randomised, two-way c || [22]; 22. Boehringer Ingelheim (2013) Relative bioavailability of a single oral dose of nintedanib given alone and in combination with multiple oral doses of rifampicin in healthy male volunteers (an open-l). Conditions: cited from earlier work.

Series [2] relates to idiopathic pulmonary fibrosis (IPF). Also noted: method as in PMID 21992121, PMID 24836310. To be noted: patients with IPF, 52-week treatment period; cited from earlier work.
The conditions of series [3]: Phase I trial; cited from earlier work.
For a further series, the system named is P-glycoprotein (P-gp). Also noted: method as in ref 13, 21, 22 = [13]; 13. Boehringer Ingelheim (2017) OFEV® (nintedanib) capsules, for oral use; Prescribing information, revised: 08/2017. http://docs.boehringer-ingelheim.com/Prescribing%20Information/PIs/Ofev/ofev.pdf . || [21]; 21. Boehringer Ingelheim (2013) Relative bioavailability of nintedanib given alone and in combination with ketoconazole at steady state in healthy male volunteers (an open-label, randomised, two-way c || [22]; 22. Boehringer Ingelheim (2013) Relative bioavailability of a single oral dose of nintedanib given alone and in combination with multiple oral doses of rifampicin in healthy male volunteers (an open-l). Conditions: cited from earlier work.

For series [4] the following is noted: cited from earlier work.
Series [5] is described as follows: Population pharmacokinetic analysis in healthy subjects after intravenous administration of nintedanib (one-compartment model). It is filed as in vivo, human. To be noted: human, plasma, estimate (RSE%). From the text: The pharmacokinetic profile of BIBF 1202 was best described by a one-compartment model with first-order elimination (see Online Resource Fig. S1 for model structure). To account for formation of BIBF 1202 in the intestine or via hepatic first-pass effect, a first-order absorption with lag time (ALAG2) was implemented as per nintedanib absorption. The relative bioavailability (F2) and the absorption-rate constant (k a2) were implemented as functions of nintedanib F1 and k a, respectively (substantial drop in OFV as compared to a model, where F2 and k a2 were estimated independently of F1 and k a). This parametrization accounted for correlations between nintedanib and BIBF 1202 parameters and replaced the full variance–covariance matrix which was not applied due to the sequential modeling approach used. The rate of formation of BIBF 1202 (k met) during nintedanib systemic elimination was accounted by defining it as a function of nintedanib clearance: k met = CL/V2*ffM, where CL and V2 denote the clearance and central volume of distribution of nintedanib respectively, and ffM denotes the proportion of the nintedanib elimination resulting in BIBF 1202 formation. Due to the lack of data for BIBF 1202 given as an intravenous (IV) infusion, several parameter estimates were not identifiable (ffM, BIBF 1202 apparent volume of distribution [V3/F]) and were, therefore, fixed. The value for ffM was derived from pharmacokinetic data after IV administration of nintedanib (Online Resource Table S4) and the ratio of V3/F–V2/F was fixed based on information observed in rats. […] In addition to the (inter-individual) variability of F2 induced by the variability in F1 (F2 being proportional to F1), additional IIV could be implemented for F2.
Table S4 Structural parameters for nintedanib and BIBF 1202 from a population pharmacokinetic analysis based on healthy subjects (n=23^a, 372 observations) after intravenous administration of nintedanib
One subject (3 mg dose) was excluded from analysis due to increasing plasma concentrations of nintedanib after end of infusion

On the set-up of series [6]: method as in PMID 20460487, PMID 25299232. To be noted: cited from earlier work.
On the set-up of series [7]: method as in ref 34 = [34]; 34. Boehringer Ingelheim (2015) Pharmacokinetics, safety and tolerability of nintedanib single oral dose in male and female patients with different degrees of hepatic impairment (Child-Pugh classifica). Conditions: Child–Pugh classification, subjects with liver cirrhosis; cited from earlier work.
On the set-up of series [8]: method as in PMID 21204634. To be noted: cited from earlier work.

Turning to `COC(=O)c1ccc2c(c1)NC(=O)/C2=C(\Nc1ccc(N(C)C(=O)CN2CCN(C)CC2)cc1)c1ccccc1` [nintedanib], in series [1] (400 mg ketoconazole (potent P-gp inhibitor)), the “increase of nintedanib exposure on co-administration with ketoconazole” value was 60%. For the same compound, the “decrease of nintedanib exposure on co-administration with rifampicin” value in series [1] (600 mg rifampicin (potent P-gp inducer)) was 50%. The “rate of decline in forced vital capacity” value in series [2] is on record as “significant reduction”. Further, in [3], the “increase of exposure (AUC0−∞) by food” value is on record as 20% and the “increase of maximum plasma concentrations (Cmax) by food” value is listed as 20%. Moreover, the “substrate of P-glycoprotein (P-gp)” value with P-glycoprotein (P-gp) is recorded as “substrate”. In series [4], the absolute bioavailability result is given as “about 5%”; the “dose proportionality of total and peak systemic exposures” value is “dose-proportional”; the “geometric mean terminal elimination half-life” value is 10 to 15 h. Also, in series [4] (estimated), the “total fraction of nintedanib and its metabolites absorbed” value is recorded as 23%. For the same compound, the “time of peak plasma concentrations after oral dosing” value in series [4] (patients with solid tumors) is 2 to 4 h. The “time to steady state” value in series [4] (twice-daily dosing) was ≤ 7 days. For the same compound, the clearance (commonly the volume of plasma or blood freed of the substance per unit of time) in [5] (healthy subjects (n=23), single intravenous nintedanib infusion 1, 3 or 6 mg, data of absolute bioavailability study [7], read-out: CL, total body clearance for nintedanib (converted)) is 2570 mL/min. Further, the Vd in series [5] (healthy subjects, intravenous nintedanib, read-out: V2, volume of distribution for nintedanib) is 60.9 L. In [6], the “pharmacokinetic interaction between nintedanib and either docetaxel or pemetrexed” value is reported as “no significant pharmacokinetic interaction”. In series [7], the “increase in nintedanib exposure, mild hepatic impairment” value was ~2 fold and the “increase in nintedanib exposure, moderate hepatic impairment” value is reported as ~8 fold. In addition, in series [8], the eliminated in urine result is recorded as “Less than 1%” and the “excreted in the feces” value was “about 94 % of the dose”.
